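Five concentrations, 48 hours, 96-well plates. GI50 is the concentration that inhibits growth by half. The concentration for full growth arrest is given as TGI.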
What was measured:
Test in all cases: NCI anticancer screen, dose series, 48 h
NCI-H460 lung = system: NCI-H460 lung
M14 melanoma = system: M14 melanoma
IGROV1 ovarian = system: IGROV1 ovarian
SF-539 CNS = system: SF-539 CNS
SF-268 CNS = system: SF-268 CNS
HL-60(TB) leukemia = system: HL-60(TB) leukemia
SF-295 CNS = system: SF-295 CNS
UACC-62 melanoma = system: UACC-62 melanoma
OVCAR-4 ovarian = system: OVCAR-4 ovarian
CAKI-1 renal = system: CAKI-1 renal

SMILES | TGI (NCI-H460 lung) | TGI (M14 melanoma) | TGI (IGROV1 ovarian) | TGI (SF-539 CNS) | TGI (SF-268 CNS) | TGI (HL-60(TB) leukemia) | TGI (SF-295 CNS) | TGI (UACC-62 melanoma) | TGI (OVCAR-4 ovarian) | TGI (CAKI-1 renal) | GI50 (NCI-H460 lung) | GI50 (M14 melanoma) | GI50 (IGROV1 ovarian) | GI50 (SF-539 CNS) | GI50 (SF-268 CNS) | GI50 (HL-60(TB) leukemia) | GI50 (SF-295 CNS) | GI50 (UACC-62 melanoma) | GI50 (OVCAR-4 ovarian) | GI50 (CAKI-1 renal)
CCOP(=O)(Cc1ccc(CP(=O)(OCC)OCC)n1C)OCC | > 100 µM | > 100 µM | > 100 µM | > 100 µM | > 100 µM | > 100 µM | > 100 µM | > 100 µM | > 100 µM | > 100 µM |  |  |  |  |  |  |  |  |  | 
COC(=O)C1=C(C)N(NC(=O)c2ccccc2)C(C)(O)C12CCOC2=O (stereo not given) | > 100 µM | > 100 µM | > 100 µM | > 100 µM | > 100 µM | > 100 µM | > 100 µM | > 100 µM | > 100 µM | > 100 µM |  |  |  |  |  |  |  |  |  | 
Cc1ccc(Cl)cc1Nc1nc(C(F)(F)F)ccc1C(=O)N1CCN(c2ccc(F)cc2)CC1 | 36.9 µM | 31.3 µM | 27.2 µM | 30.2 µM | 36.5 µM | 37.8 µM | 32.5 µM | 24.1 µM | 27.9 µM | 14.2 µM | 16 µM | 15 µM | 0.21 µM | 14.8 µM | 15.8 µM | 12.7 µM | 15.6 µM | 11.5 µM | 10.8 µM | 1.53 µM
O=S(=O)(Nc1cc(F)cc(Cl)c1)c1ccc(-c2cnc(C3CC3)o2)cc1 | 13.8 µM | 15.5 µM | 17.5 µM | 10.5 µM | 26.2 µM | 24.2 µM | 10.3 µM | 14.5 µM | 21.9 µM | 17.5 µM | 0.64 µM | 0.923 µM | 0.771 µM | 1.25 µM | 6.47 µM | 0.761 µM | 0.389 µM | 0.458 µM | 5.64 µM | 0.595 µM
CS(=O)(=O)N/N=C/CN1C(=O)c2ccccc2C1=O | > 100 µM | > 100 µM | > 100 µM | > 100 µM | > 100 µM | > 100 µM | > 100 µM | > 100 µM | > 100 µM | > 100 µM |  |  |  |  |  |  |  |  |  | 
Cn1c(=O)c2c(nc(Nc3cc(=O)[nH]c(=O)[nH]3)n2Cc2ccccc2)n(C)c1=O | > 100 µM | > 100 µM | > 100 µM | > 100 µM | > 100 µM | > 100 µM | > 100 µM | > 100 µM | > 100 µM | > 100 µM | > 100 µM | > 100 µM | > 100 µM | > 100 µM | > 100 µM | > 100 µM | > 100 µM | 65.8 µM | 46.9 µM | 50.1 µM
COc1cc(Nc2cn[nH]c2-c2ccc(Cl)cc2)cc(OC)c1OC | 19.1 µM | 9.41 µM | 69.6 µM | 24.7 µM | > 70.5 µM | 28.6 µM | 11.3 µM | 18.9 µM | > 100 µM | 26.2 µM | 3.7 µM | 2.5 µM | 4.6 µM | 4.48 µM | 6.76 µM | 2.6 µM | 2.18 µM | 3.61 µM | 7.93 µM | 2.34 µM
O=[N+]([O-])c1nccn1CC(O)c1ccc(F)cc1 (stereo not given) | > 100 µM | > 100 µM | > 100 µM | > 100 µM | > 100 µM | > 100 µM | > 100 µM | > 100 µM | > 100 µM | > 100 µM |  |  |  |  |  |  |  |  |  | 
COc1ccc(NC(=O)CCc2cc(-c3ccc(O)c(OC)c3)nc(NC#N)n2)cc1 | > 100 µM | > 100 µM | > 100 µM | > 100 µM | > 100 µM | > 100 µM | > 100 µM | > 100 µM | > 100 µM | > 100 µM |  |  |  |  |  |  |  |  |  | 
CCCCCCCCCC/C=C/CC(=O)SCCNC(=O)CCNC(=O)[C@@H](O)C(C)(C)COP(=O)(O)OP(=O)(O)OCC1OC(n2cnc3c(N)ncnc32)C(O)C1OP(=O)(O)O (stereo not given in full) | > 10 µM | > 10 µM | > 10 µM | > 10 µM | > 10 µM | > 10 µM | > 10 µM | > 10 µM | > 10 µM | > 10 µM |  |  |  |  |  |  |  |  |  | 
Cc1ccc(S(=O)(=O)NCC2CCCCC2=O)cc1 (stereo not given) | > 100 µM | > 100 µM | > 100 µM | > 100 µM | > 100 µM | > 100 µM | > 100 µM | > 100 µM | > 100 µM | 67.5 µM |  |  |  |  |  |  |  |  |  | 
C=C(CCCCC)CN1CCCC1[C@@](C)(O)CC(=O)OCC (stereo not given in full) | > 100 µM | > 100 µM | > 100 µM | > 100 µM | > 100 µM | > 100 µM | > 100 µM | > 100 µM | > 100 µM | > 100 µM |  |  |  |  |  |  |  |  |  | 
Cc1ccccc1N1C(=O)/C(=C/c2ccc(N(CCC#N)CCC#N)cc2)N=C1c1cc([N+](=O)[O-])ccc1Cl | > 100 µM | > 100 µM | > 100 µM | > 100 µM | > 100 µM | > 100 µM | > 100 µM | > 100 µM | > 100 µM | > 100 µM |  |  |  |  |  |  |  |  |  | 
O=c1nc2occc2cn1C1CC(O)C(CO)O1 (stereo not given) | > 100 µM | > 100 µM | > 100 µM | > 100 µM | > 100 µM | > 100 µM | > 100 µM | > 100 µM | > 100 µM | > 100 µM |  |  |  |  |  |  |  |  |  | 

— PubChem BioAssay (NCI)
